Assay results from patent US20040072824A1, “Methods and compositions for the treatment of cancer” (priority 2001, published 2004).

Test system: Poly ADP-Ribose Polymerase (PARP)
Assay: PARP cleavage in treated U937 cells (western blot)
Type: cell-based
Conditions: 24 hours
Protocol: U937 cells were treated with various concentrations of hydroxyzine and promethazine for 24 hours. The proteins were isolated from these cells and loaded onto a gel for a western blot analysis. A specific anti-PARP antibody was used to visualize the location of PARP.

**Q.** Which “PARP cleavage (induction of apoptosis)” value does the source give for `CN[C@@H]1C[C@H]2O[C@@](C)([C@@H]1OC)n1c3ccccc3c3c4c(c5c6ccccc6n2c5c31)C(=O)NC4` [staurosporine] here?
**A.** cleave PARP
